“And” between values parts separate entries of the source, which are not always exact repeats. Identical values can stand only once. Like-named read-outs stand apart in the source and are kept apart here.
How the values were obtained:
Type in all cases: cell-based
S. Typhimurium (SL1344) = test: Minimum inhibitory concentration determination in broth; conditions: for MIC50: Salmonella enterica, TYPHIMURIUM
Protocol: A, B) Dose response curves monitoring S. Typhimurium (SL1344) or E. coli (K12) growth from an OD600 of 0.01, normalized to growth in 2% DMSO under the indicated condition. Mean and SEM of at least three biological replicates performed with technical triplicates; curve fit: sigmoidal, 4P L. C-E) Checkerboard assays of S. Typhimurium SL1344 growth from an OD600 of 0.01 in LB for 18 hours with novobiocin (up to 100 μg/mL) and (C) PMB (up to 48 μM), (D) JDI (up to 150 μM), or (E) D66 (up to 150 μM). Growth was normalized to growth in 2% DMSO, with the darkest blue representing 100% growth and white representing 0%.
Minimum inhibitory concentration determination: Overnight LB-grown cultures were diluted in LB or MHB to an optical density (OD600) of 0.01 and distributed into polystyrene 96-well flat-bottom plates (Greiner, 655185). […] The final DMSO concentration was at or below 2%. Where indicated, PMB [0.5 μg/mL] was added prior to D66. Plates were grown at 37° C. with shaking and OD600 was monitored (BioTek Synergy H1 or BioTek Eon). MICs were defined as the concentration at which 95% of growth was inhibited (OD600).

S. Typhimurium = test: Growth curves and kill curves; conditions: outer-membrane perturbing conditions, D66 at 2x MIC, LB or MHB, 18 hours
Protocol: FIG. 3A-F. D66 rapidly perturbs the bacterial cytoplasmic membrane with minor disruption of barrier function. Mid-log phase S. Typhimurium cells grown in LB with 0.5 μg/mL PMB were used for all experiments. A) Cell membrane potential was monitored with the fluorescent dye DiSC3 (5). Cells were treated at time 0 with DMSO, JD1 [70 μM], or D66. Data were normalized to DMSO at time 0 and corrected for the quenching effect of D66 (FIG. 6A, B) B) Cell membrane permeability was monitored by PI fluorescence. Cells were treated at time 0 with DMSO, SDS [0.005%] or D66. Samples were processed at the time points shown. A one-way ANOVA with a Dunnet's multiple comparison test, * P<0.005. C-F) Growth curves and kill-curves of cells treated at time 0 with either DMSO or D66. Culture aliquots were monitored for OD600 (C, E) or plated for enumeration of CFU (D, F). Data are presented as fold change. Mean and SEM of three biological replicates with technical triplicates are shown in all panels.
Growth curves and kill curves: Mid-log phase cultures were sampled at time 0 and then compound or vehicle control (DMSO) was added. Cultures were incubated at 37° C. with agitation. At the time intervals indicated, aliquots were monitored for OD600 and plated for CFU enumeration. Data for OD600 and CFU/mL were normalized to time 0.

staphylococcal biofilm = test: Staphylococcal biofilm formation; conditions: 18 hours in TSB, subinhibitory concentrations
Protocol: Biofilm formation was monitored after 18 hours in TSB with subinhibitory concentrations of DMSO, rifampin (1x MIC95=0.05 μg/mL), vancomycin (1x MIC95=1 μg/mL), or D66 (1x MIC95=130 μM). A-D) Crystal violet staining for accumulated biofilm mass measured at A595. Mean and
SEM of three biological replicates performed with technical triplicates. E-F). Biofilms were stained with Syto 9 (live cells) and PI (damaged/dead cells) and imaged with confocal fluorescent microscopy. Volume of live, dead, and total cell volume was calculated (positive volume=positive voxel; 1 voxel=0.0367 μm3). Asterisks indicate P≤0.05 as determined by one-way ANOVA compared to DMSO. Mean and SDs derived from a minimum of four fields of view each from two biological replicates.

[1] = system: one-day-old staphylococcal biofilms; test: One-day-old staphylococcal biofilms; conditions: biofilms established 24 hours in TSB, treated 18 hours
Protocol: For the indicated strain, biofilms established in TSB for 24 hours were treated for 18 hours with DMSO, rifampin (1x MIC95=0.05 μg/mL), vancomycin (1x MIC95=1 μg/mL), or D66. The remaining biofilm (A-D) matrix was quantified with crystal violet or E-F) volume was quantified after Syto9 and PI staining as in FIG. 5. G, H) Syto9 and PI-stained Z-stacked images were converted to volumes. Volume data were compiled and reconstructed in Nikon Elements Advanced Research software using a color-coded volume display where blue is the bottom, lowest Z-stack and magenta is the highest point for each sample. Scale bar is in um.
Asterisks indicate P≤0.05 as determined by one-way ANOVA compared to DMSO. A-D are means and SEMs from three biological replicates performed in triplicate. E-F are means and SDs of one of two replicates derived from a minimum of four fields of view. G-H are representative images from this same replicate as in E-F.

For O=C(Nc1cc(Cl)cc(Cl)c1)N1CCCN(Cc2ccccc2)CC1 [D66], the “growth inhibition in the presence of polymyxin B nonapeptide (PMBN)” value (S. Typhimurium (SL1344); PMBN [20 μg/mL], MHB) was “did not enable D66 to inhibit growth”, the “cMIC95 in LB” value (S. Typhimurium (SL1344); S. Typhimurium (SL1344) w/PMB (0.5 ug/mL), LB) was 54 µM and the “cMIC95 in MHB” value (S. Typhimurium (SL1344); S. Typhimurium (SL1344) w/PMB (0.5 ug/mL), MHB) was 46 µM. For the same compound, the “cMIC95 in LB” value (S. Typhimurium (SL1344); S. Typhimurium (SL1344), LB) was greater than 150 µM, the “cMIC95 in MHB” value (S. Typhimurium (SL1344); S. Typhimurium (SL1344), MHB) was greater than 150 µM and the MIC50 (S. Typhimurium (SL1344); S. Typhimurium (SL1344) w/PMB (0.5 ug/mL), LB, read-out: MIC50 in LB) was 45 µM and 17 µg/mL. The MIC50 (S. Typhimurium (SL1344); S. Typhimurium (SL1344) w/PMB (0.5 ug/mL), MHB, read-out: MIC50 in MHB) was 40 ± 1 µM, the MIC50 (S. Typhimurium (SL1344); S. Typhimurium (SL1344), LB, read-out: MIC50 in LB) was > 150 µM and > 57 µg/mL and the MIC50 (S. Typhimurium (SL1344); S. Typhimurium (SL1344), MHB, read-out: MIC50 in MHB) was greater than 150 µM. For the same compound, the “absorbance and CFU of bacteria (cell lysis)” value (S. Typhimurium) was “did not reduce the absorbance nor the CFU of bacteria”, the staphylococcal biofilm formation (staphylococcal biofilm) was “inhibits staphylococcal biofilm formation” and the “number of live cells in one-day-old biofilms” value [1] was “decreases the number of live cells”.
